Reference: patent publication US10538521B2, “Pyrimidine derivative having antimalarial activity” (CARNA BIOSCIENCES, INC., priority 2016, dated 2020)

Assays:
[1] = system: K1 strain, a drug resistant strain of Plasmodium falciparum; test: In vitro antimalarial assay (p-LDH, Malstat), K1 strain; assay type: cell-based; settings: P. falciparum K1 (drug resistant), 72 h culture, p-LDH readout, read-out: Antimalarial activity (IC50 value), Strain K1
Excerpt: (§1) For the evaluation of the antimalarial activity of the compound of the present invention, K1 strain, a drug resistant strain of Plasmodium falciparum, and FCR3 strain, a drug sensitive strain thereof, which were generous gift from Professor Kiyoshi Kita of the Graduate School of Medicine and Faculty of Medicine, the University of Tokyo, were used to measure the in vitro antimalarial activity of the compound against those Plasmodium species according to the method established by Otoguro et al. (Otoguro, K., Kohana, A., Manabe, C., Ishiyama, A., Ui, H., Shiomi, K., Yamada, H. & Omura, S.: Potent antimalarial activity of polyether antibiotic, X-206. J. Antibiot., 54: 658-663, (2001)).
(§2) The parasites were grown based on a slightly modified method from the original method reported by Trager and Jensen (Trager, W. and Jensen, J.: Human malaria parasites in continuous culture, Science, 193: 673-677, (1976)), and those which were maintained and sub-cultured by the method were used. More specifically, in a culture dish, erythrocytes infected with the protozoa, which had been sub-cultured using a RPMI 1640 medium to which 10% human plasma had been added and fresh human erythrocytes, were diluted (hematocrit value: 2 to 5%, parasitaemia: 0.25 to 1%), and were cultured at 37° C. in a mixed gas of 3% O2-4% CO2-93% N2, and continuously cultured while changing the medium and adding fresh erythrocytes at 2- or 3-day intervals.
(§3) A drug susceptibility test was performed by modifying the method established by Desjardins et al. (Desjardins, R. E., Canfield, C. J., Haynes, D. E. and Chulay, J. D.: Quantitative assessment of antimalarial activity in vitro by a semiautomated microdilution technique. Antimicrob. Agents Chemother., 16: 710-718 (1979)). More specifically, 190 μL of a suspension of protozoa which had been precultured (hematocrit value: 2%, parasitaemia: 0.5 or 1%) and 10 μL of a solution of a test compound (5% DMSO solution) serially diluted so that the final concentration was 12.5 to 0.0001 μM were put in each well of a 96-well plate, and after mixing, the same was cultured for 72 hours in the above mixed gas.
(§4) For the measurement of the growth of protozoa, the method established by Makler (Makler, M. T., Rise, J. M., Williams, J. A., Bancroft, J. E., Piper, R. C., Gibbins, B. L. and Hinrichs, D. J.: Parasite lactate dehydrogenase as an Assay for Plasmodium falciparum drug sensitivity, Am. J. Med. Hyg., 48: 739-741 (1993)) was modified to colorimetrically determine parasite lactate dehydrogenase (p-LDH) using Malstat reagent (Flow Inc., USA).
(§5) More specifically, 72 hours after the culture, the 96-well plate was directly frozen at −20° C. for 18 hours and melted at 37° C. to hemolyze the protozoan-infected erythrocytes and destroy the protozoa to prepare a crude enzyme solution. 100 μL of Malstat reagent and 20 μL of the crude enzyme solution were added to and mixed in each well of another 96-well plate, and after reacting for 15 minutes at room temperature, 20 μL of a nitroblue tetrazolium 2 mg/mL phenazine ethosulfate 0.1 mg/mL=1:1 solution was added to the respective wells, and reaction was performed in dark conditions at room temperature for 2 hours.
(§6) The absorbance of the blue formazan product formed by the reaction was measured at a measurement wavelength of 655 nm by using a microplate reader (Labsystems, Finland) to colorimetrically determine the growth of the protozoa. The 50% growth inhibitory concentration for the protozoa of the compound (IC50 value) was determined based on the concentration-response curve of the compound.

[2] = system: FCR3 strain, a drug sensitive strain of Plasmodium falciparum; test: In vitro antimalarial assay (p-LDH, Malstat), FCR3 strain; assay type: cell-based; settings: P. falciparum FCR3 (drug sensitive), 72 h culture, p-LDH readout, read-out: Antimalarial activity (IC50 value), Strain FCR3
Excerpt: as §1, §2, §3, §4, §5, §6

Row | SMILES | IC50 [1] | IC50 [2]
1 | Cc1nc(Nc2nc(Nc3ccn4ccnc4c3)cc(N3CCOCC3)n2)cc(C2CC2)c1F [Example 53, N2-(4-Cyclopropyl-5-fluoro-6-methylpyridin-2-yl)-N4-(imidazo [1,2-a]pyridin-7-yl)-6-morpholinopyrimidine-2,4-diamine] | 100 to 1000 nM | 100 to 1000 nM
2 | Cc1cccc(Nc2nc(N)cc(Nc3ccn4ccnc4c3)n2)n1 [Example 54, N4-(Imidazo[1,2-a]pyridin-7-yl)-N2-(6-methylpyridin-2-yl) pyrimidine-2,4,6-triamine] | < 100 nM | < 100 nM
3 | CC(C)Oc1ccc(Nc2nc(Nc3ccn4ccnc4c3)cc(N3CCCCC3)n2)cn1 [Example 55, N4-(Imidazo[1,2-a]pyridin-7-yl)-N2-(6-isopropoxypyridin-3-yl)-6-(piperidin-1-yl) pyrimidine-2,4-diamine] | 1000 to 10000 nM | 100 to 1000 nM
4 | CCOc1cc(Nc2ccn3ccnc3c2)nc(Nc2ccc(OC(C)C)nc2)n1 [Example 57, 6-Ethoxy-N4-(Imidazo[1,2-a]pyridin-7-yl)-N2-(6-isopropoxypyridin-3-yl)pyrimidine-2,4-diamine] | 1000 to 10000 nM | 100 to 1000 nM
5 | Cc1cc(C)nc(Nc2nc(N)cc(Nc3ccn4ccnc4c3)n2)c1 [Example 58, N2-(4,6-dimethylpyridin-2-yl)-N4-(imidazo[1,2-a]pyridin-7-yl)pyrimidine-2,4,6-triamine] | < 100 nM | < 100 nM
6 | Cc1ccc(Nc2nc(Nc3ccn4ccnc4c3)cc(N3CCOCC3)n2)cn1 [Example 60, N4-(imidazo[1,2-a]pyridin-7-yl)-N2-(6-methylpyridin-3-yl)-6-morpholinopyrimidine-2,4-diamine] | < 100 nM | < 100 nM
7 | CN(C)CCOc1ccc(Nc2nc(Nc3ccn4ccnc4c3)cc(N3CCOCC3)n2)cn1 [Example 61, N2-(6-(2-(dimethylamino)ethoxy)pyridin-3-yl)-N4-(imidazo[1,2-a]pyridin-7-yl)-6-morpholino-pyrimidine-2,4-diamine] | 1000 to 10000 nM | 100 to 1000 nM
8 | CCCCOc1ccc(Nc2nc(Nc3ccn4ccnc4c3)cc(N3CCOCC3)n2)cn1 [Example 62, N2-(6-butoxypyridin-3-yl)-N4-(imidazo[1,2-a]pyridin-7-yl)-6-morpholinopyrimidine-2,4-diamine] | 100 to 1000 nM | 100 to 1000 nM
9 | CC(C)(C)Oc1ccc(Nc2nc(Nc3ccn4ccnc4c3)cc(N3CCOCC3)n2)cn1 [Example 63, N2-(6-(tert-butoxy)pyridin-3-yl)-N4-(imidazo[1,2-a]pyridin-7-yl)-6-morpholinopyrimidine-2,4-diamine] | 100 to 1000 nM | 100 to 1000 nM
10 | CC(C)COc1ccc(Nc2nc(Nc3ccn4ccnc4c3)cc(N3CCOCC3)n2)cn1 [Example 64, N4-(imidazo[1,2-a]pyridin-7-yl)-N2-(6-isobutoxypyridin-3-yl)-6-morpholinopyrimidine-2,4-diamine] | 100 to 1000 nM | < 100 nM
11 | CC(C)(C)COc1ccc(Nc2nc(Nc3ccn4ccnc4c3)cc(N3CCOCC3)n2)cn1 [Example 65, N4-(imidazo[1,2-a]pyridin-7-yl)-6-morpholino-N2-(6-(neopentyloxy)pyridin-3-yl)pyrimidine-2,4-diamine] | 100 to 1000 nM | 100 to 1000 nM
12 | c1cn2ccc(Nc3cc(N4CCOCC4)nc(Nc4ccc(OC5CCC5)nc4)n3)cc2n1 [Example 80, N2-(6-cyclobutoxypyridin-3-yl)-N4-(imidazo[1,2-a]pyridin-7-yl)-6-morpholinopyrimidine-2,4-diamine] | 100 to 1000 nM | 100 to 1000 nM

Other lines, results leading:

Row | IC50 [1] | IC50 [2] | SMILES
13 | 100 to 1000 nM | 100 to 1000 nM | COCCOc1ccc(Nc2nc(Nc3ccn4ccnc4c3)cc(N3CCOCC3)n2)cn1 [Example 66, N4-(imidazo[1,2-a]pyridin-7-yl)-N2-(6-(2-methoxyethoxy)-pyridin-3-yl)-6-morpholino-pyrimidine-2,4-diamine]
14 | 100 to 1000 nM | 100 to 1000 nM | CC(C)(C)c1ccnc(Nc2nc(Nc3ccn4ccnc4c3)cc(N3CCOCC3)n2)c1 [Example 67, N2-(4-(tert-butyl)pyridin-2-yl)-N4-(imidazo[1,2-a]pyridin-7-yl)-6-morpholinopyrimidine-2,4-diamine]
15 | 100 to 1000 nM | < 100 nM | CCCOc1ccc(Nc2nc(Nc3ccn4ccnc4c3)cc(N3CCOCC3)n2)cn1 [Example 69, N4-(imidazo[1,2-a]pyridin-7-yl)-6-morpholino-N2-(6-propoxy-pyridin-3-yl)pyrimidine-2,4-diamine]
16 | < 100 nM | < 100 nM | CC(C)c1ccnc(Nc2nc(Nc3ccn4ccnc4c3)cc(N3CCOCC3)n2)c1 [Example 70, N4-(imidazo[1,2-a]pyridin-7-yl)-N2-(4-isopropylpyridin-2-yl)-6-morpholinopyrimidine-2,4-diamine]
17 | < 100 nM | < 100 nM | CCc1ccnc(Nc2nc(Nc3ccn4ccnc4c3)cc(N3CCCCC3)n2)c1 [Example 71, N2-(4-ethylpyridin-2-yl)-N4-(imidazo[1,2-a]pyridin-7-yl)-6-(piperidin-1-yl)pyrimidine-2,4-diamine]
18 | 1000 to 10000 nM | 100 to 1000 nM | CC(C)(C)c1ccnc(Nc2nc(Nc3ccn4ccnc4c3)cc(N3CCCCC3)n2)c1 [Example 72, N2-(4-(tert-butyl)pyridin-2-yl)-N4-(imidazo[1,2-a]pyridin-7-yl)-6-(piperidin-1-yl)pyrimidine-2,4-diamine]
19 | 100 to 1000 nM | 100 to 1000 nM | CC(C)c1ccnc(Nc2nc(Nc3ccn4ccnc4c3)cc(N3CCCCC3)n2)c1 [Example 73, N4-(imidazo[1,2-a]pyridin-7-yl)-N2-(4-isopropylpyridin-2-yl)-6-(piperidin-1-yl)pyrimidine-2,4-diamine]
20 | 100 to 1000 nM | < 100 nM | CCCc1ccnc(Nc2nc(Nc3ccn4ccnc4c3)cc(N3CCOCC3)n2)c1 [Example 74, N4-(imidazo[1,2-a]pyridin-7-yl)-6-morpholino-N2-(4-propylpyridin-2-yl)pyrimidine-2,4-diamine]
21 | 100 to 1000 nM | < 100 nM | CCCc1ccnc(Nc2nc(Nc3ccn4ccnc4c3)cc(N3CCCCC3)n2)c1 [Example 75, N4-(imidazo[1,2-a]pyridin-7-yl)-6-(piperidin-1-yl)-N2-(4-propylpyridin-2-yl)pyrimidine-2,4-diamine]
22 | 100 to 1000 nM | < 100 nM | FC(F)(F)COc1ccc(Nc2nc(Nc3ccn4ccnc4c3)cc(N3CCOCC3)n2)cn1 [Example 77, N4-(imidazo[1,2-a]pyridin-7-yl)-6-morpholino-N2-(6-(2,2,2-trifluoroethoxy)pyridin-3-yl) pyrimidine-2,4-diamine]
23 | 100 to 1000 nM | < 100 nM | FC(F)Oc1ccc(Nc2nc(Nc3ccn4ccnc4c3)cc(N3CCOCC3)n2)cn1 [Example 78, N2-(6-(difluoromethoxy)pyridin-3-yl)-N4-(imidazo[1,2-a]pyridin-7-yl)-6-morpholinopyrimidine-2,4-diamine]
24 | 100 to 1000 nM | 100 to 1000 nM | Cc1ccc(Nc2nc(Nc3ccn4ccnc4c3)cc(N3CCCCC3)n2)cn1 [Example 79, N4-(imidazo[1,2-a]pyridin-7-yl)-N2-(6-methylpyridin-3-yl)-6-(piperidin-1-yl)pyrimidine-2,4-diamine]
25 | 100 to 1000 nM | 100 to 1000 nM | c1cn2ccc(Nc3cc(N4CCOCC4)nc(Nc4ccc(OC5CCCCC5)nc4)n3)cc2n1 [Example 81, N2-(6-(cyclohexyloxy)pyridin-3-yl)-N4-(imidazo[1,2-a]pyridin-7-yl)-6-morpholinopyrimidine-2,4-diamine]
